Assay results: PubChem BioAssay AID330 (DTP/NCI, 2004)
Several values for one entry are separate records, joined by “and”; a condition that tells them apart may be missing. Equal values may be shown once. Inconclusive results and toxic doses are left out.

Tested on: P388 leukemia ip, CD2F1 mice, survival T/C
Assay: NCI In Vivo Anticancer Drug Screen. Data for tumor model P388 Leukemia (intraperitoneal) in CD2F1 (CDF1) mice
Details: endpoint: median survival time, higher = longer survival
Outline: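 Mice carrying the transplanted tumor received test compound or vehicle. Survival was recorded in each group, and the value is the treated-group measurement divided by that of the vehicle-treated control group.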

[1] = dose: 12.5 mg/kg/injection, schedule: Q01DX005 (ip), vehicle: Klucel (hydroxypropylcellulose) (HPC)
[2] = dose: 25.0 mg/kg/injection, schedule: Q01DX005 (ip), vehicle: Klucel (hydroxypropylcellulose) (HPC)
[3] = dose: 50.0 mg/kg/injection, schedule: Q01DX005 (ip), vehicle: Klucel (hydroxypropylcellulose) (HPC)
[4] = dose: 100.0 mg/kg/injection, schedule: Q01DX001 (ip), vehicle: Klucel (hydroxypropylcellulose) (HPC)
[5] = dose: 50.0 mg/kg/injection, schedule: Q01DX005 (ip), vehicle: saline
[6] = dose: 100.0 mg/kg/injection, schedule: Q01DX005 (ip), vehicle: saline
[7] = dose: 200.0 mg/kg/injection, schedule: Q01DX005 (ip), vehicle: saline
[8] = dose: 50.0 mg/kg/injection, schedule: Q01DX009 (ip), vehicle: saline with Tween-80
[9] = dose: 60.0 mg/kg/injection, schedule: Q01DX005 (ip), vehicle: saline with Tween-80
[10] = dose: 120.0 mg/kg/injection, schedule: Q01DX005 (ip), vehicle: saline with Tween-80
[11] = dose: 240.0 mg/kg/injection, schedule: Q01DX005 (ip), vehicle: saline with Tween-80
[12] = dose: 25.0 mg/kg/injection, schedule: Q01DX009 (ip), vehicle: saline
[13] = dose: 50.0 mg/kg/injection, schedule: Q01DX005 (ip), vehicle: saline with Tween-80
[14] = dose: 100.0 mg/kg/injection, schedule: Q01DX005 (ip), vehicle: saline with Tween-80
[15] = dose: 200.0 mg/kg/injection, schedule: Q01DX005 (ip), vehicle: saline with Tween-80
[16] = dose: 100.0 mg/kg/injection, schedule: Q01DX005 (ip), vehicle: Klucel (hydroxypropylcellulose) (HPC)
[17] = dose: 200.0 mg/kg/injection, schedule: Q01DX005 (ip), vehicle: Klucel (hydroxypropylcellulose) (HPC)

COc1ccc2ncc(COC(=O)NC3CCCCC3)c(COC(=O)NC3CCCCC3)c2c1
T/C [1]: 91 % of control
T/C [2]: 94 % of control
T/C [3]: 88 % of control

C=C1C(=O)OC2/C=C(\C)CC/C=C(\C)CC(OC(=O)/C(=C/C)CO)C12 (stereo unspecified)
T/C (dose: 25.0 mg/kg/injection, schedule: Q01DX001 (ip), vehicle: Klucel (hydroxypropylcellulose) (HPC)): 101 % of control
T/C (dose: 50.0 mg/kg/injection, schedule: Q01DX001 (ip), vehicle: Klucel (hydroxypropylcellulose) (HPC)): 96 % of control
T/C [4]: 110 % of control

O=C(SC(O)c1ccc([N+](=O)[O-])cc1)c1ccccc1 (stereo unspecified)
T/C (dose: 100.0 mg/kg/injection, schedule: Q04DX003 (ip), vehicle: Klucel (hydroxypropylcellulose) (HPC)): 101 % of control
T/C (dose: 200.0 mg/kg/injection, schedule: Q04DX003 (ip), vehicle: Klucel (hydroxypropylcellulose) (HPC)): 106 % of control
T/C (dose: 400.0 mg/kg/injection, schedule: Q04DX003 (ip), vehicle: Klucel (hydroxypropylcellulose) (HPC)): 101 % of control

CC1CC(C(=O)O)N1 (stereo unspecified)
T/C [5]: 101 % of control
T/C [6]: 98 % of control
T/C [7]: 97 % of control

Cc1ccc(C[N+](C)(C)C)cc1
T/C (dose: 12.5 mg/kg/injection, schedule: Q01DX009 (ip), vehicle: saline with Tween-80): 107 % of control
T/C (dose: 25.0 mg/kg/injection, schedule: Q01DX009 (ip), vehicle: saline with Tween-80): 100 % of control
T/C [8]: 100 % of control and 106 % of control

C1CCc2c(-c3n[nH]c4c3CCCC4)n[nH]c2C1
T/C [9]: 103 % of control
T/C [10]: 101 % of control
T/C [11]: 100 % of control

O=C1Cc2ccccc2C2CC12 (stereo unspecified)
T/C [4]: 98 % of control
T/C (dose: 200.0 mg/kg/injection, schedule: Q01DX001 (ip), vehicle: Klucel (hydroxypropylcellulose) (HPC)): 113 % of control
T/C (dose: 400.0 mg/kg/injection, schedule: Q01DX001 (ip), vehicle: Klucel (hydroxypropylcellulose) (HPC)): 111 % of control

O=C(NP1(=O)NCc2ccccc2CN1)OC1CCCCC1
T/C (dose: 6.25 mg/kg/injection, schedule: Q01DX005 (ip), vehicle: Klucel (hydroxypropylcellulose) (HPC)): 94 % of control
T/C [1]: 99 % of control
T/C [2]: 97 % of control

Oc1ccc(C(O)C2CCCCN2)cc1O (stereo unspecified)
T/C [12]: 99 % of control
T/C (dose: 50.0 mg/kg/injection, schedule: Q01DX009 (ip), vehicle: saline): 108 % of control
T/C (dose: 100.0 mg/kg/injection, schedule: Q01DX009 (ip), vehicle: saline): 103 % of control
T/C (dose: 200.0 mg/kg/injection, schedule: Q01DX009 (ip), vehicle: saline): 108 % of control

COC1C(/C=[N+](\C)[O-])OC2OC(C)(C)OC21 (stereo unspecified)
T/C [5]: 102 % of control
T/C [6]: 100 % of control
T/C [7]: 93 % of control

CC1=C(C(=O)/C=C/c2ccccc2)C(=O)c2ccccc2C1=O
T/C [13]: 95 % of control
T/C [14]: 87 % of control
T/C [15]: 105 % of control

CC(OCc1ccccc1)C(NC(=O)OC(C)(C)C)C(=O)O (stereo unspecified)
T/C [3]: 113 % of control
T/C [13]: 103 % of control
T/C [16]: 94 % of control
T/C [14]: 100 % of control
T/C [17]: 96 % of control
T/C [15]: 98 % of control

[Cl][Sn]([c]1ccccc1)[c]1ccccc1
T/C (dose: 1.8 mg/kg/injection, schedule: Q03HX015 (ip), vehicle: saline): 150 % of control
T/C (dose: 2.7 mg/kg/injection, schedule: Q03HX015 (ip), vehicle: saline): 152 % of control
T/C (dose: 3.12 mg/kg/injection, schedule: Q01DX009 (ip), vehicle: saline): 86 % of control
T/C (dose: 4.0 mg/kg/injection, schedule: Q03HX015 (ip), vehicle: saline): 163 % of control
T/C (dose: 5.3 mg/kg/injection, schedule: Q01DX005 (ip), vehicle: saline): 154 % of control
T/C (dose: 12.0 mg/kg/injection, schedule: Q01DX005 (ip), vehicle: saline): 163 % of control
T/C (dose: 12.5 mg/kg/injection, schedule: Q01DX009 (ip), vehicle: saline): 163 % of control
T/C (dose: 12.5 mg/kg/injection, schedule: Q04DX003 (ip), vehicle: saline): 114 % of control
T/C [12]: 198 % of control
T/C (dose: 100.0 mg/kg/injection, schedule: Q04DX003 (ip), vehicle: saline): 154 % of control

CC(C)(Br)C(=O)N1CCN(C(c2ccccc2)c2ccccc2)CC1
T/C [9]: 92 % of control
T/C [10]: 91 % of control
T/C [11]: 89 % of control

CCOP(=S)(OCC)Oc1ccccc1
T/C (dose: 100.0 mg/kg/injection, schedule: Q04DX002 (ip), vehicle: saline): 104 % of control
T/C (dose: 200.0 mg/kg/injection, schedule: Q04DX002 (ip), vehicle: saline): 113 % of control
T/C (dose: 400.0 mg/kg/injection, schedule: Q04DX002 (ip), vehicle: saline): 115 % of control

C=C1C2CCC3C45C=NCC(C)(CCC4)C5CCC3(C2)C1OC(C)=O (stereo unspecified)
T/C (dose: 2.0 mg/kg/injection, schedule: Q01DX009 (ip), vehicle: Klucel (hydroxypropylcellulose) (HPC)): 104 % of control
T/C (dose: 4.0 mg/kg/injection, schedule: Q01DX009 (ip), vehicle: Klucel (hydroxypropylcellulose) (HPC)): 94 % of control
T/C (dose: 8.0 mg/kg/injection, schedule: Q01DX009 (ip), vehicle: Klucel (hydroxypropylcellulose) (HPC)): 104 % of control
T/C (dose: 16.0 mg/kg/injection, schedule: Q01DX009 (ip), vehicle: Klucel (hydroxypropylcellulose) (HPC)): 93 % of control

CCC1(N(C)C)C(=O)NC(=O)N(C2CCCCC2)C1=O (stereo unspecified)
T/C (dose: 60.0 mg/kg/injection, schedule: Q01DX005 (ip), vehicle: Klucel (hydroxypropylcellulose) (HPC)): 98 % of control
T/C (dose: 120.0 mg/kg/injection, schedule: Q01DX005 (ip), vehicle: Klucel (hydroxypropylcellulose) (HPC)): 96 % of control
T/C (dose: 240.0 mg/kg/injection, schedule: Q01DX005 (ip), vehicle: Klucel (hydroxypropylcellulose) (HPC)): 91 % of control

O=c1[nH]c2c(ccc3cccnc32)c2c1CCC2
T/C (dose: 12.5 mg/kg/injection, schedule: Q04DX003 (ip), vehicle: saline with Tween-80): 98 % of control
T/C (dose: 25.0 mg/kg/injection, schedule: Q04DX003 (ip), vehicle: saline with Tween-80): 95 % of control
T/C (dose: 50.0 mg/kg/injection, schedule: Q04DX003 (ip), vehicle: saline with Tween-80): 98 % of control

CN1C(=O)N(C)C(=O)C(Cl)(Cl)C1=O
T/C [1]: 101 % of control
T/C [2]: 97 % of control

Cc1ccc(S(=O)(=O)C2CC(=O)N(c3ccc(F)c(Cl)c3)C2=O)cc1 (stereo unspecified)
T/C (dose: 100.0 mg/kg/injection, schedule: Q04DX002 (ip), vehicle: saline with Tween-80): 94 % of control
T/C (dose: 200.0 mg/kg/injection, schedule: Q04DX002 (ip), vehicle: saline with Tween-80): 94 % of control
T/C (dose: 400.0 mg/kg/injection, schedule: Q04DX002 (ip), vehicle: saline with Tween-80): 96 % of control

CCOC(=O)C(C#N)c1cc(O)c(O)c2ccc(O)cc12 (stereo unspecified)
T/C (dose: 100.0 mg/kg/injection, schedule: Q01DX001 (ip), vehicle: saline with Tween-80): 97 % of control
T/C (dose: 200.0 mg/kg/injection, schedule: Q01DX001 (ip), vehicle: saline with Tween-80): 107 % of control
T/C (dose: 400.0 mg/kg/injection, schedule: Q01DX001 (ip), vehicle: saline with Tween-80): 106 % of control

CCCCN(CCCC)C1/C(=N\O)C2CC1C1CC=CC21 (stereo unspecified)
T/C (dose: 60.0 mg/kg/injection, schedule: Q01DX005 (ip), vehicle: saline + Tween-80 + alcohol): 95 % of control
T/C (dose: 120.0 mg/kg/injection, schedule: Q01DX005 (ip), vehicle: saline + Tween-80 + alcohol): 94 % of control
T/C (dose: 240.0 mg/kg/injection, schedule: Q01DX005 (ip), vehicle: saline + Tween-80 + alcohol): 94 % of control

O=C1NC2Cc3ccccc3C(C2)O1 (stereo unspecified)
T/C [9]: 101 % of control
T/C [10]: 100 % of control
T/C [11]: 93 % of control

COc1cccc([B-]23OCC[N+]2(CNC(=O)C2=C(O)C4(O)C(=O)C5=C(O)c6c(O)cccc6C(C)(O)C5CC4C(N(C)C)C2=O)CCO3)c1 (stereo unspecified)
T/C [3]: 110 % of control
T/C [16]: 105 % of control
T/C [17]: 115 % of control

CSC(=S)N/N=C(\C)c1cccs1
T/C [8]: 91 % of control
T/C (dose: 100.0 mg/kg/injection, schedule: Q01DX009 (ip), vehicle: saline with Tween-80): 111 % of control
T/C (dose: 200.0 mg/kg/injection, schedule: Q01DX009 (ip), vehicle: saline with Tween-80): 110 % of control
